The values that follow come from US20250059174A1, “Pharmaceutical Compounds and Compositions as C-Kit Kinase Inhibitors” (Enanta Pharmaceuticals, Inc., priority 2023, published 2025).

In general, pEC50 refers to −log10 of the EC50, conventionally taken in molar units. A lower pEC50 goes with a large EC50. In general, pIC50 refers to the IC50 on a negative log10 scale, so that one unit is a factor of ten.

SMILES strings stand for the structures. pEC50, pIC50: −log10 of the molar value. Where only a bound is given, the exact number is not on record here.

The test system of one assay is M-07e cells. The assay can be described thus: M-07e cellular assay (SCF-mediated cell proliferation). It counts as cell-based. To be noted: Homo sapiens, 72 hours, CellTiter Glo. In outline: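 CellTiter Glo luminescence after 72 h compound exposure in SCF (EC90)-stimulated M-07e cells expressing endogenous human c-KIT.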
Assay [1] concerns the target Recombinant human c-KIT kinase (Homo sapiens (Human), UniProt P10721). The assay can be described thus: c-KIT kinase chemiluminescence assay (ADP-Glo). To be noted: ATP 50 μM. It is filed as biochemical. The gist of the method:
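ADP formed by c-KIT on polyEY over 2 h at RT (after 30 min enzyme preincubation; Tris pH 7.5, MgCl2, BSA, DTT buffer) was detected by ADP-Glo luminescence. IC50 and Hill slope were fitted to control-normalized activity across compound concentrations.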
(In general: In ADP-Glo the light output rises with the ADP produced.)

Recombinant human c-KIT kinase, sequence (P10721 26-976): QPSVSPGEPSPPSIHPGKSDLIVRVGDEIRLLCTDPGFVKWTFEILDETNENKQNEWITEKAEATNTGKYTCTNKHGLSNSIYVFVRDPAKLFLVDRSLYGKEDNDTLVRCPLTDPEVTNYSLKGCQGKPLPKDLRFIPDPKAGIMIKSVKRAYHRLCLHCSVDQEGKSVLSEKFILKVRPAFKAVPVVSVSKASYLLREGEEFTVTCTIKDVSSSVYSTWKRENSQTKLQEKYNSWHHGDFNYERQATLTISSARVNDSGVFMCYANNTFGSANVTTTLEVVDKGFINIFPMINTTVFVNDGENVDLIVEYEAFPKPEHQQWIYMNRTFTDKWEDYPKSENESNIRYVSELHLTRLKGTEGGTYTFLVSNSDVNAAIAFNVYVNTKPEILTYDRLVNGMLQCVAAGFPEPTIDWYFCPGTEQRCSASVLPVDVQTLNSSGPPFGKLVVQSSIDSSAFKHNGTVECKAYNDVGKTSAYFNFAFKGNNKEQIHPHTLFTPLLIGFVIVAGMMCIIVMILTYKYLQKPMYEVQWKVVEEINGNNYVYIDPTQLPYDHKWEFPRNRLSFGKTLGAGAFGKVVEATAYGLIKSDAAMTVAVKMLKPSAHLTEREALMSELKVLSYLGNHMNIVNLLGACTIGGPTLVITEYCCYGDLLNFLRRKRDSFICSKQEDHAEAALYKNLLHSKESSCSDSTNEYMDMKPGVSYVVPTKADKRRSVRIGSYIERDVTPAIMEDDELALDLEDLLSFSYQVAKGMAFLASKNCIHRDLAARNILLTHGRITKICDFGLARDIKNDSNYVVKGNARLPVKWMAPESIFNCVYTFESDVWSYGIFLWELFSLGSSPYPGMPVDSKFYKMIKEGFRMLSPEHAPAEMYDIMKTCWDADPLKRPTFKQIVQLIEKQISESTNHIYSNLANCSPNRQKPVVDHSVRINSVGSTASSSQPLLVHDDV

With `Cc1ccc(-c2noc([C@H]3C[C@@H]3F)n2)cc1NC(=O)c1cnn2ccc(-c3cnc(C4CC4)nc3)cc12` [Example 160], the pEC50 in the assay with M-07e cells was more than 7.00. In addition, the negative-log IC50 (pIC50) in assay [1] is more than 7.00.
As to `Cc1ccc(-c2noc([C@H]3C[C@@H]3F)n2)cc1NC(=O)c1cnc(-c2ccc3c(c2)oc(=O)n3C)o1` [Example 308-35], the pEC50 in the assay on M-07e cells was 6.00 to 7.00. Moreover, the pIC50 in assay [1] was 6.00 to 7.00.
For the molecule `Cc1ncc(-c2noc([C@H]3C[C@@H]3F)n2)cc1NC(=O)c1cnn2ccc(N3CC4(C3)CC(O)(C(F)F)C4)cc12` [Example 281-63], the pEC50 in the assay with M-07e cells was more than 7.00. In addition, in assay [1], the pIC50 is 6.00 to 7.00.
The like results for `Cc1ccc(-c2noc([C@H]3C[C@@H]3F)n2)cc1NC(=O)c1cnn2ccc(-c3cnn(C4COC4)c3)cc12` [Example 136] were, in that order, more than 7.00 and more than 7.00.
In the assay on M-07e cells, `Cc1ccc(-c2noc([C@H]3C[C@@H]3F)n2)cc1NC(=O)c1cnc(-c2ccccc2)n1C` [Example 14] gave a pEC50 of less than 6.00. In addition, in assay [1], the pIC50 is 6.00 to 7.00.
For `COC(=O)N1CCC(c2nc(-c3ccc(C)c(NC(=O)c4cnn5ccc(N6CC7(C6)CC(O)(C(F)F)C7)cc45)c3)no2)C1` (centres unmarked) [Example 281-108], the negative logarithm of the EC50 (pEC50) with M-07e cells was more than 7.00. Besides, the negative logarithm of the IC50 (pIC50) in assay [1] was more than 7.00.
In the assay on M-07e cells, `CC(=O)N1CC2(CC(c3nc(-c4cnc(C)c(NC(=O)c5cnn6ccc(N7CC8(C7)CC(O)(C(F)F)C8)cc56)c4)no3)C2)C1` [Example 281-73] gave a pEC50 of less than 6.00. For the same molecule, the pIC50 in assay [1] was less than 6.00.
On to `Cc1ccc(-c2noc([C@H]3C[C@@H]3F)n2)cc1NC(=O)c1cnn2ccc(-c3c(C)nc(N4CC(F)(F)C4)nc3C)cc12` [Example 171-13], for which the pEC50 in the assay on M-07e cells was 6.00 to 7.00. Besides, the pIC50 in assay [1] was 6.00 to 7.00.
Turning to `Cc1ccc(-c2noc([C@H]3C[C@@H]3F)n2)cc1NC(=O)c1cnn2ccc(-c3cc(C(F)(F)F)nn3C(C)C)cc12` [Example 171-23], the pEC50 in the assay on M-07e cells was less than 6.00. For the same molecule, the pIC50 in assay [1] was less than 6.00.
On to `Cc1ncc(-c2noc([C@H]3C[C@](O)(C(F)(F)F)C3)n2)cc1NC(=O)c1cnn2ccc(N3CC4(C3)CC(O)(C(F)F)C4)cc12` [Example 281-38], for which the pEC50 in the assay with M-07e cells is more than 7.00. Also, the pIC50 in assay [1] was 6.00 to 7.00.
For `Cc1ccc(-c2noc([C@H]3C[C@@H]3F)n2)cc1NC(=O)c1cnn2ccc(Cl)cc12` [Example 59] the same measures were 6.00 to 7.00 and more than 7.00.
Take `Cc1ccc(-c2noc([C@H]3C[C@@H]3F)n2)cc1NC(=O)c1cnn2ccc(N3C[C@@H](CS(C)(=O)=O)[C@H]3C)cc12` [Example 175]: the pEC50 in the assay with M-07e cells was more than 7.00. The pIC50 in assay [1] is more than 7.00.
The molecule `Cc1ccc(-c2ccc(C(C)C)cn2)cc1NC(=O)c1cnn2ccc(N3CC4(COC4)C3)cc12` [Example 349] gave a pEC50 in the assay with M-07e cells of more than 7.00. In addition, the pIC50 in assay [1] is more than 7.00.
For the molecule `[2H]C([2H])([2H])c1ccc(-c2noc([C@H]3C[C@@H]3C(F)F)n2)cc1NC(=O)c1cnn2ccc(N3CC4(COC4)C3)cc12` [Example 281-5], in the assay on M-07e cells, the negative logarithm of the EC50 (pEC50) is more than 7.00. In assay [1], the pIC50 was more than 7.00.
Consider `Cc1ccc(-c2ncc(C3CC3)cn2)cc1NC(=O)c1cnn2cc(-c3cn(C(F)F)nn3)ccc12` [Example 132-13], for which the pEC50 in the assay on M-07e cells was more than 7.00. Further, the pIC50 in assay [1] was more than 7.00.
Consider `Cc1ccc(-c2noc([C@H]3C[C@@H]3F)n2)cc1NC(=O)c1cnc(-c2ccc3c(c2)NC(=O)C3)o1` [Example 301], for which the pEC50 in the assay with M-07e cells was less than 6.00. Also, in assay [1], the pIC50 is 6.00 to 7.00.
For `Cc1ccc2c(C(=O)Nc3cc(-c4noc([C@H]5C[C@@H]5F)n4)ccc3C)cnn2c1` [Example 61] the same measures were more than 7.00 and more than 7.00.
The like results for `COC(=O)N1CCn2nc(-c3ccc(C)c(NC(=O)c4cnn5ccc(N6CC7(C6)CC(O)(C(F)F)C7)cc45)c3)nc2C1` [Example 324] were, in that order, 6.00 to 7.00 and 6.00 to 7.00.
The like results for `Cc1ccc(-c2noc([C@H]3C[C@@H]3F)n2)cc1NC(=O)c1cnn2ccc(-c3ccn(C(F)F)n3)cc12` [Example 135] were, in that order, 6.00 to 7.00 and more than 7.00.
Regarding `Cc1ccc(-c2noc([C@H]3C[C@@H]3F)n2)cc1NC(=O)c1cnn2ccc(N3CC(C(=O)NC4CC4)C3)cc12` [Example 241-10], in the assay with M-07e cells, the pEC50 is more than 7.00. Moreover, in assay [1], the pIC50 is more than 7.00.
For `Cc1ncc(-c2ncc(C3CC3)cn2)cc1NC(=O)c1cnc(-c2ccc3c(c2)CC(=O)N3)o1` [Example 361], the negative logarithm of the EC50 (pEC50) in the assay on M-07e cells was 6.00 to 7.00. In assay [1], the negative logarithm of the IC50 (pIC50) is 6.00 to 7.00.
As for `Cc1ccc(-c2noc([C@H]3C[C@@H]3F)n2)cc1NC(=O)c1cnc(-c2cccc3[nH]c(=O)[nH]c23)o1` [Example 308-34], the pEC50 in the assay on M-07e cells was less than 6.00. In assay [1], the pIC50 is 6.00 to 7.00.
As for `[2H]C([2H])([2H])c1ccc(-c2noc([C@H]3C[C@@H]3F)n2)cc1NC(=O)c1cnn2ccc(N3CC4(COC4)C3)cc12` [Example 281-3], the pEC50 in the assay with M-07e cells is more than 7.00. The pIC50 in assay [1] is more than 7.00.
`Cc1ccc(-c2noc([C@H]3C[C@@H]3F)n2)cc1NC(=O)c1cnn2cc(F)c(-c3c(C)nn(C(F)F)c3C)cc12` [Example 166]: the pEC50 with M-07e cells is 6.00 to 7.00. Further, the pIC50 in assay [1] is less than 6.00.
For the molecule `Cc1ncc(-c2noc(C3CN(C(=O)C4(F)CC4)C3)n2)cc1NC(=O)c1cnn2ccc(N3CC4(COC4)C3)cc12` [Example 281-85], the pEC50 in the assay on M-07e cells is 6.00 to 7.00. For the same molecule, the pIC50 in assay [1] was less than 6.00.
The like results for `Cc1ncc(-c2noc(C3CN(CC(F)(F)F)C3)n2)cc1NC(=O)c1cnn2ccc(N3CC4(C3)CC(O)(C(F)F)C4)cc12` [Example 281-88] were, in that order, more than 7.00 and 6.00 to 7.00.
`Cc1ccc(-c2noc([C@H]3C[C@@H]3F)n2)cc1NC(=O)c1ccc2c(c1)CC(=O)N2` [Example 98-6] showed a pEC50 in the assay on M-07e cells of less than 6.00. For the same molecule, the pIC50 in assay [1] is less than 6.00.
`Cc1ccc(-c2noc([C@H]3C[C@@H]3F)n2)cc1NC(=O)c1cnn2ccc(N3C[C@@H]4C[C@H]3CO4)cc12` [Example 200] had a pEC50 in the assay with M-07e cells of more than 7.00. In assay [1], the pIC50 is more than 7.00.
The molecule `Cc1ccc(-c2ncc3c(ccn3C(F)F)n2)cc1NC(=O)c1cnn2ccc(N3CC4(C3)CC(O)(C(F)F)C4)cc12` [Example 319] showed a pEC50 in the assay on M-07e cells of more than 7.00. For the same molecule, the pIC50 in assay [1] was more than 7.00.
In the assay with M-07e cells, `Cc1ccc(-c2noc([C@H]3C[C@@H]3F)n2)cc1NC(=O)c1cnc(-c2cccnc2)o1` [Example 285] showed a pEC50 of less than 6.00. The pIC50 in assay [1] was less than 6.00.
In the assay on M-07e cells, `Cc1ccc(-c2noc([C@H]3C[C@@H]3F)n2)cc1NC(=O)c1cnc(-c2ccc3c(c2)C(C)C(=O)N3)o1` (some centres unmarked) [Example 308-61] gave a pEC50 of 6.00 to 7.00. The pIC50 in assay [1] was 6.00 to 7.00.
In turn, `Cc1ccc(-c2noc([C@H]3C[C@@H]3F)n2)cc1NC(=O)c1cnn2ccc(-c3nnn(C)n3)cc12` [Example 131] gave a pEC50 in the assay with M-07e cells of more than 7.00. In addition, the pIC50 in assay [1] was 6.00 to 7.00.
For `Cc1ccc(-c2noc([C@H]3C[C@@H]3F)n2)cc1NC(=O)c1cnn2cc(Cl)ccc12` [Example 57] the same measures were 6.00 to 7.00 and more than 7.00.
On to `Cc1ccc(-c2ncc(C(F)(F)F)cn2)cc1NC(=O)c1cnn2ccc(N3CC4(COC4)C3)cc12` [Example 337], for which the pEC50 in the assay on M-07e cells is more than 7.00. In assay [1], the pIC50 is 6.00 to 7.00.
In the assay on M-07e cells, `Cc1ncc(-c2noc([C@H]3C[C@@H](OC(F)(F)F)C3)n2)cc1NC(=O)c1cnn2cc(-c3cn(CC4(C)COC4)nn3)ccc12` [Example 132-12] gave a pEC50 of more than 7.00. In addition, the pIC50 in assay [1] is more than 7.00.
In the assay with M-07e cells, `Cc1ccc(-c2noc([C@H]3C[C@@H]3F)n2)cc1NC(=O)c1cnc(-c2ccc3[nH]c(C(F)(F)F)cc3c2)o1` [Example 304] had a pEC50 of more than 7.00. Moreover, in assay [1], the pIC50 was more than 7.00.
`Cc1ncc(-c2noc(C3CN(C(=O)C4(F)CC4)C3)n2)cc1NC(=O)c1cnn2ccc(N3CC4(C3)CC(O)(C(F)F)C4)cc12` [Example 281-84] showed a pEC50 with M-07e cells of 6.00 to 7.00. Besides, in assay [1], the pIC50 was less than 6.00.
Regarding `Cc1ccc(-c2noc([C@H]3C[C@@H]3F)n2)cc1NC(=O)c1cnn2ccc(-c3cnn(C(C)(C)CO)c3)cc12` [Example 140], the pEC50 with M-07e cells is more than 7.00. Besides, the pIC50 in assay [1] is more than 7.00.
The molecule `Cc1ccc(-c2noc([C@H]3C[C@@H](OC(F)F)C3)n2)cc1NC(=O)c1cnn2ccc(N3CC4(CCN(CC(F)(F)F)C4)C3)cc12` [Example 253] had a pEC50 in the assay on M-07e cells of 6.00 to 7.00. For the same molecule, the pIC50 in assay [1] is 6.00 to 7.00.
Regarding `Cc1ccc(-c2noc([C@H]3C[C@@H]3F)n2)cc1NC(=O)c1cnn2ccncc12` [Example 15], the pEC50 in the assay with M-07e cells is 6.00 to 7.00. In assay [1], the pIC50 was 6.00 to 7.00.
In the case of `O=C(Nc1cc(-c2noc([C@H]3C[C@@H](OC(F)F)C3)n2)ccc1Cl)c1cnn2ccc(N3CC4(COC4)C3)cc12` [Example 265], in the assay with M-07e cells, the pEC50 was more than 7.00. Also, the pIC50 in assay [1] is more than 7.00.
`Cc1ccc(-c2nc3cc(F)ccn3n2)cc1NC(=O)c1cnn2ccc(N3CC4(C3)CC(O)(C(F)F)C4)cc12` [Example 318] gave a pEC50 in the assay on M-07e cells of more than 7.00. In assay [1], the pIC50 was more than 7.00.
With `Cc1ccc(-c2noc([C@H]3C[C@@H]3F)n2)cc1NC(=O)c1cnn2cc(F)c(Br)cc12` [Example 62], the pEC50 in the assay with M-07e cells was less than 6.00. In addition, in assay [1], the pIC50 is 6.00 to 7.00.
Regarding `Cc1ccc(-c2noc([C@H]3C[C@@H]3F)n2)cc1NC(=O)c1cnn2ccc(-c3c(C)nc(N)nc3C)cc12` [Example 171-6], the pEC50 in the assay on M-07e cells is more than 7.00. The pIC50 in assay [1] was 6.00 to 7.00.
For `Cc1ccc(-c2noc([C@H]3C[C@@H]3F)n2)cc1NC(=O)c1cnn2ccc(N3CCO[C@@H](C)C3)cc12` [Example 215] the same measures were more than 7.00 and more than 7.00.
For `Cc1ccc(-c2noc(C3CN(C(=O)N4CC(F)(F)C4)C3)n2)cc1NC(=O)c1cnn2ccc(N3CC4(COC4)C3)cc12` [Example 281-61] the same measures were 6.00 to 7.00 and less than 6.00.
